Activity calls are given as the source filed them.
Assays:
Cytochrome P450 3A4 = Cytochrome P450 3A4 (Homo sapiens, UniProt P08684); conditions: Potency;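 note: confirmatory qHTS run detecting inhibitors and substrates of CYP3A4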
cells [1] = assay type: functional, cell-based
cells [2] = assay type: functional, cell-based; remark: listed apart in the source
Vero = test: cells; assay type: functional, cell-based; conditions: Chlorocebus sabaeus
Large T antigen = Large T antigen (Simian virus 40, UniProt P03070); assay type: functional, Betapolyomavirus macacae;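 note: Confirmatory-stage PubChem screen for compounds that inhibit SV40 T antigen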
[3] = target: Photoreceptor-specific nuclear receptor (Homo sapiens, UniProt Q9Y5X4); assay type: functional, cell-based;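 note: CHO-S cells with Gal4-NCOR and VP16-NR2E3 two-hybrid luciferase reporter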
[4] = target: FAD-linked sulfhydryl oxidase ALR (Homo sapiens, UniProt P55789); test: ALR-catalysed DTT oxidation blockers – biochemical, H2O2 detection, luminescence, cherry-pick, dose response (AID 493248)
[5] = target: T1, Polyadenylate-binding protein 1 (Homo sapiens, UniProt P11940); test: MLLE domain peptide-binding blockers, IC50 – biochemical, fluorescence polarization, FITC-PAM2 peptide, dose response (AID 602259); assay type: functional; conditions: read-out: IC50_Mean
[6] = target: T1, Polyadenylate-binding protein 1; test: MLLE binding blockers, Cy5 peptide tracer – biochemical, fluorescence polarization, Cy5-PAM2 peptide, secondary, miRNA deadenylation inhibitor project, dose response (AID 602260); assay type: functional; conditions: read-out: IC50_Mean
Protein skinhead-1 = target: T2, Protein skinhead-1 (Caenorhabditis elegans, UniProt P34707); assay type: functional
T2 sequence (P34707 whole entry): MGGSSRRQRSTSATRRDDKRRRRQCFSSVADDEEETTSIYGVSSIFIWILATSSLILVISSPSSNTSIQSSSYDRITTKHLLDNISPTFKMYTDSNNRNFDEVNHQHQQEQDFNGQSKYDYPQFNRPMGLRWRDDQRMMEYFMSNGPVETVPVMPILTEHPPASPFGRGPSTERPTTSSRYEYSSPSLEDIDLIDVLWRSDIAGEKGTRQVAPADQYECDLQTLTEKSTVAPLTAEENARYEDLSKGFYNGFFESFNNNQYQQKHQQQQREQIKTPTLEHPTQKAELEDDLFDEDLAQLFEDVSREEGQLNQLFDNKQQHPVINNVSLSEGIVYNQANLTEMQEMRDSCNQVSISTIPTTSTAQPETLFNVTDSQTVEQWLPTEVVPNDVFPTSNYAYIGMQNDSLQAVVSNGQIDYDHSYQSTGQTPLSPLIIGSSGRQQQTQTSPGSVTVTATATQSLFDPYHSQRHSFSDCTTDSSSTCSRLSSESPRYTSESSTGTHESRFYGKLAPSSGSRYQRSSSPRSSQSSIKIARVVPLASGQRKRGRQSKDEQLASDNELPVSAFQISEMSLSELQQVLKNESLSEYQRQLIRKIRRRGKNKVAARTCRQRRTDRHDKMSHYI

cells [7] = assay type: functional, cell-based; remark: listed apart in the source
cells [8] = assay type: functional, cell-based; remark: listed apart in the source
Fatty acid synthase [9] = target: T3, Fatty acid synthase (Homo sapiens, UniProt P49327); test: inhibition of human FAS-TE enzyme activity – biochemical, kinetic fluorescence intensity, dose response (AID 624326); assay type: functional;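 note: rate of fluorescence rise from hydrolysis of a fluorogenic O-methyl fluorescein ester substrate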
Fatty acid synthase [10] = target: T3, Fatty acid synthase; test: inhibition of human FAS-TE enzyme activity – biochemical, endpoint fluorescence intensity, uHTS hits, dose response (AID 624327); assay type: functional;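 note: fluorescence from hydrolysis of an O-methyl fluorescein acyl ester substrate by the enzyme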
[11] = target: T4, Small ubiquitin-related modifier 1 (Homo sapiens, UniProt P63165); test: SUMO1 protein-protein binding blockers, potency – biochemical, FRET, dose response (AID 624383); assay type: functional; conditions: read-out: IC50_Mean
[12] = target: T4, Small ubiquitin-related modifier 1; test: SUMO1 protein interaction blockers, potency – biochemical, fluorescence polarization, uHTS hits, dose response (AID 624382); assay type: functional; conditions: read-out: IC50_Mean
[13] = viability of uninfected HEp-2 cells – cell-based, HTS, cytotoxicity control for RSV inhibitor project, dose response (AID 2410); assay type: functional; conditions: human respiratory syncytial virus
Genome polyprotein = Genome polyprotein (dengue virus type 2, UniProt P29990); test: flavivirus cap methylation enzyme inhibition – biochemical, confirmation dose response, primary screen (AID 588689); assay type: functional

Chain of Large T antigen (P03070 whole entry, the tested form may be a part): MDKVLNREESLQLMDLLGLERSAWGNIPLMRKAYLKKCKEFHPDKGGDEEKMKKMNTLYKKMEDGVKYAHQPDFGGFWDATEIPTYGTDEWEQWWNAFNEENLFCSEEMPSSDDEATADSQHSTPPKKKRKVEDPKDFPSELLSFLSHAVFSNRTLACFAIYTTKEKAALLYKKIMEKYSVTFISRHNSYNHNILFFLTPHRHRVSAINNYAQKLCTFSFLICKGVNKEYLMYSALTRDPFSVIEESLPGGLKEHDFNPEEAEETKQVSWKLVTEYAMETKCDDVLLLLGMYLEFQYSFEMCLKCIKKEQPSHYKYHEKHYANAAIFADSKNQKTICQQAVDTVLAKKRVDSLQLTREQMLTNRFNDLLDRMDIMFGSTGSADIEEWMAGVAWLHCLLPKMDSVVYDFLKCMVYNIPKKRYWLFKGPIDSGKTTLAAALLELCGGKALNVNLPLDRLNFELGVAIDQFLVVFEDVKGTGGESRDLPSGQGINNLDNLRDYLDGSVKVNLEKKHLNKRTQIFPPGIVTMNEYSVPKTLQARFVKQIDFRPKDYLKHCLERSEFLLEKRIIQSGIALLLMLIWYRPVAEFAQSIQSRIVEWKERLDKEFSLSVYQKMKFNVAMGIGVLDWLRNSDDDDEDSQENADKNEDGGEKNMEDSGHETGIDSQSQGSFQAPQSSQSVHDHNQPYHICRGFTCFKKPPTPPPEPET
T4 sequence (P63165 whole entry): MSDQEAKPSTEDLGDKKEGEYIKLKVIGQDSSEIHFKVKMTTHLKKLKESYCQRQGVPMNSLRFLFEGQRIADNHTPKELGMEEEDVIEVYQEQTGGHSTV
Chain of Cytochrome P450 3A4 (P08684 whole entry): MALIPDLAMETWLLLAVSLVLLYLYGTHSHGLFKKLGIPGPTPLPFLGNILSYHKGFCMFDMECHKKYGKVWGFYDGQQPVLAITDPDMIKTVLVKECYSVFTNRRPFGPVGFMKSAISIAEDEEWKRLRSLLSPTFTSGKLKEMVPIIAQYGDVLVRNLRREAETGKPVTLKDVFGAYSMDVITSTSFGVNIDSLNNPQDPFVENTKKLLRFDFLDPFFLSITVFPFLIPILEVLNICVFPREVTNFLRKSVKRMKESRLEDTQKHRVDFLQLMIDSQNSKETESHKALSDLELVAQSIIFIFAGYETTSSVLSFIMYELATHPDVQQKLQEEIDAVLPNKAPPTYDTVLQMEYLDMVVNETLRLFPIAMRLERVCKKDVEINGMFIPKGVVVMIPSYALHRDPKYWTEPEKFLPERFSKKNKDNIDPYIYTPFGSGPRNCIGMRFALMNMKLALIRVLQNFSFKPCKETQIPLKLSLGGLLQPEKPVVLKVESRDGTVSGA
T3 sequence (P49327 whole entry): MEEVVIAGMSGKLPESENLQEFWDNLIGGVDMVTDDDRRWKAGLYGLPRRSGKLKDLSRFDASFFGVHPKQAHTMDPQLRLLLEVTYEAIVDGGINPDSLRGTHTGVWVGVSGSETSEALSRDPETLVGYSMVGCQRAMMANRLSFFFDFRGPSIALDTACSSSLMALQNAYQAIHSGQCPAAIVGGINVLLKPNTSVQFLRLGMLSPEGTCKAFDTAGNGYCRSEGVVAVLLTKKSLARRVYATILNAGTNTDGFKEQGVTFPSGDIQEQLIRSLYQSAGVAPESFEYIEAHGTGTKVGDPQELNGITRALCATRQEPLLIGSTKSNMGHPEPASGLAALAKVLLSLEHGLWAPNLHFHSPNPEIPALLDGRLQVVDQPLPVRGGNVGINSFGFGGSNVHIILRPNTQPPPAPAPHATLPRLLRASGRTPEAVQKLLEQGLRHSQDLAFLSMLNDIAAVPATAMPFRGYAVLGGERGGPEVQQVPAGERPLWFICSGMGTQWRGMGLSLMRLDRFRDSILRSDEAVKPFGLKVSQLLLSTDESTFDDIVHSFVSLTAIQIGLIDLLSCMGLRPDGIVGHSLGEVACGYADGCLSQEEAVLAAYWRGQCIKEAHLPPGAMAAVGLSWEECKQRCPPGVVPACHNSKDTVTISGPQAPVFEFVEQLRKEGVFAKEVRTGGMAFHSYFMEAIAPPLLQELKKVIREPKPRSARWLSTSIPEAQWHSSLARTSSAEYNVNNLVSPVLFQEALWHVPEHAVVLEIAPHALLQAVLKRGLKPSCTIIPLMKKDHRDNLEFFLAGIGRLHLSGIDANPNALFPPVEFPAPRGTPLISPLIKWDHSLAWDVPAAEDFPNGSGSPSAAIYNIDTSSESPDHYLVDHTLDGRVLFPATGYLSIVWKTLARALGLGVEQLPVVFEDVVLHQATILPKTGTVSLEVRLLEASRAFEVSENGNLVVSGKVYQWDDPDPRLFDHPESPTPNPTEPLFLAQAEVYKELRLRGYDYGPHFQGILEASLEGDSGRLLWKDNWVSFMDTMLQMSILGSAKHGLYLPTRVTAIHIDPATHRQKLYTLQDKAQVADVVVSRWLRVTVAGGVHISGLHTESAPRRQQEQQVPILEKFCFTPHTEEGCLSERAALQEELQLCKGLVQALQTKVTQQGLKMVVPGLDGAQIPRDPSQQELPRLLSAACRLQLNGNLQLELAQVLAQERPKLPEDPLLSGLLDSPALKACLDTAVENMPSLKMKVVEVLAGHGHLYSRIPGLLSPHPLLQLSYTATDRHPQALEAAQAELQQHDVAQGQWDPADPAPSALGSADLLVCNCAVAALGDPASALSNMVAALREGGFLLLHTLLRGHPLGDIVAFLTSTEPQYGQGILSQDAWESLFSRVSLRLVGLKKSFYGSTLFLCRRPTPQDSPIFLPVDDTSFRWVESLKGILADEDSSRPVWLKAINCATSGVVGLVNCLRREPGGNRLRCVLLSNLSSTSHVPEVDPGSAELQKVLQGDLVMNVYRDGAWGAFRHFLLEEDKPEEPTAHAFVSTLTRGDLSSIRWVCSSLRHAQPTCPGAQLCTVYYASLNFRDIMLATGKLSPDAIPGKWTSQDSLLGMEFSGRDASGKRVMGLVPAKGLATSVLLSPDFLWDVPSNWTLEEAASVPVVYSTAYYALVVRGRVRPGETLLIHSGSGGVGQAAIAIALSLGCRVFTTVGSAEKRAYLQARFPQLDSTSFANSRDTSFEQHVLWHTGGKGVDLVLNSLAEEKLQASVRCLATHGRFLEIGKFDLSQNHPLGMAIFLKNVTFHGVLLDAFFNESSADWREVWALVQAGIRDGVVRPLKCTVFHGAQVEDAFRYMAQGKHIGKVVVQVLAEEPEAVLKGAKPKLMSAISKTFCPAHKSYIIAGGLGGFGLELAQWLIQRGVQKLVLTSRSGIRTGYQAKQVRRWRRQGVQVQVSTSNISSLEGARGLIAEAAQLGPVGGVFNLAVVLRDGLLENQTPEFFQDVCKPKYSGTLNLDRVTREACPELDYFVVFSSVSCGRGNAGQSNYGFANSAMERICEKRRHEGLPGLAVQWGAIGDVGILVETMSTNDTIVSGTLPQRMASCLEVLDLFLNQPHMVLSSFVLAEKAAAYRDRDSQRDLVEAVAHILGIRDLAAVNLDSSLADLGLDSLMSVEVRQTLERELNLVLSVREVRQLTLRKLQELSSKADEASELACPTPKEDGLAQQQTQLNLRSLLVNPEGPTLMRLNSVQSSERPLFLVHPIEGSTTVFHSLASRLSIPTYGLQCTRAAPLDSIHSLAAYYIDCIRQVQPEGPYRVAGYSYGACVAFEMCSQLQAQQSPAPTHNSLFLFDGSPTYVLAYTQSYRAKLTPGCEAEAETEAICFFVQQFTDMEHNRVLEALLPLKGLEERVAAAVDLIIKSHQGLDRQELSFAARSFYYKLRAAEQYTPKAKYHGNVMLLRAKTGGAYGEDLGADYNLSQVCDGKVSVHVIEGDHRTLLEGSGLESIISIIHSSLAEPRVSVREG
T1 sequence (P11940 whole entry, the tested form may be a part): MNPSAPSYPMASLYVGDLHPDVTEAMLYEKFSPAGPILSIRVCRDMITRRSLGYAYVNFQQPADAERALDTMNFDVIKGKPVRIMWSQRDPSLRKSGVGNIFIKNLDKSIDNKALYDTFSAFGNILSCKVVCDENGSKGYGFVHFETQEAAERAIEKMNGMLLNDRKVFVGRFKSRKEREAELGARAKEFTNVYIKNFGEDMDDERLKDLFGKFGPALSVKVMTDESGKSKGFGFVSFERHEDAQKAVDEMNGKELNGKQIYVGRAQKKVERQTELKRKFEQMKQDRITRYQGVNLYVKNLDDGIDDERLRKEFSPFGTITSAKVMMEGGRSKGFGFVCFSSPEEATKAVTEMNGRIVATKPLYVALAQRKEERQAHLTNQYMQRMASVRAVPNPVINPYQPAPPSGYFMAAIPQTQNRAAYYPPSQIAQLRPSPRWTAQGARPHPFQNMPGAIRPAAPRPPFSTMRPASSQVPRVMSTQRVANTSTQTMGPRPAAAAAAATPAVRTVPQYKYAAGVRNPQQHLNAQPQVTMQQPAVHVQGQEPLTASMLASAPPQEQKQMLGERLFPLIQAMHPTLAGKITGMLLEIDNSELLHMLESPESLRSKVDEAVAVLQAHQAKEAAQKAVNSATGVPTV
Chain of Photoreceptor-specific nuclear receptor (Q9Y5X4 whole entry, the tested form may be a part): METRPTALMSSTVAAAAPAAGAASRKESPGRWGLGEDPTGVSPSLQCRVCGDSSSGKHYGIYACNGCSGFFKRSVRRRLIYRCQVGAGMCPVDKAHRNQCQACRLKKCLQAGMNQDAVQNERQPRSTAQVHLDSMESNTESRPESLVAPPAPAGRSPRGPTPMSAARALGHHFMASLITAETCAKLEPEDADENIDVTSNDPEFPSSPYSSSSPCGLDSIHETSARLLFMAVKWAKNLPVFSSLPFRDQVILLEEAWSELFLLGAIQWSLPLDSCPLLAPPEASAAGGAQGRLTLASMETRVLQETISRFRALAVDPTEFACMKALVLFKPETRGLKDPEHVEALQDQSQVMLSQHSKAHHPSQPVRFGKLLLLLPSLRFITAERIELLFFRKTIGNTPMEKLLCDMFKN
Chain of FAD-linked sulfhydryl oxidase ALR (P55789 whole entry, the tested form may be a part): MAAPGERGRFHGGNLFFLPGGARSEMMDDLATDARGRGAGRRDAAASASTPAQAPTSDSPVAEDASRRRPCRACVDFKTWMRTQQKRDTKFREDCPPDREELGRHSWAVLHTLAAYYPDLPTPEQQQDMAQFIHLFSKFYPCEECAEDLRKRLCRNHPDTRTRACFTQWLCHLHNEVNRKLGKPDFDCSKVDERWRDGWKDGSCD

SMILES: COC(=O)c1ccc(CN2[C@@H]3C[C@@H](O)CC[C@@H]3C[C@H]2C(=O)OC)cc1
- AC50 (Cytochrome P450 3A4): 15.8 µM (inconclusive)

SMILES: COc1ccc(CNC(=O)C(C)Cc2ccccc2)cc1O (stereo unspecified)
- AC50 (Cytochrome P450 3A4): 6.31 µM (inconclusive)

SMILES: Cc1ccc2nc(-c3ccc(N)cc3)sc2c1S(=O)(=O)O
- AC50 (Cytochrome P450 3A4): 31.6 µM (inconclusive)

SMILES: O=C(NCCc1ccccc1)C1CCN(C(=O)c2ccc([N+](=O)[O-])cc2)CC1
- IC50 (cells [1]): > 29.9 µM (inactive)
- EC50 (cells [2]): > 29.9 µM (inactive)

SMILES: O=C(NCCCN1CCOCC1)c1ccc(/C=C2\Oc3ccccc3N(Cc3ccccc3F)C2=O)cc1
- IC50 (Vero): 21.9 µM (active)

SMILES: O=[N+]([O-])c1ccc2c(c1N1CCCCC1)=NC1(CCCCC1)[N+]=2[O-]
- IC50 (Large T antigen): > 100 µM (active)

SMILES: COc1cc(/C=C2\C(C)=C(C#N)c3nc(N)c(C#N)c(C)c32)ccc1OCC(=O)O
- IC50 (Large T antigen): 58.1 µM (active)

SMILES: CC(=O)N1c2ccc(S(=O)(=O)N3CCC(C(=O)Nc4cccc(Cl)c4)CC3)cc2CC1C (stereo unspecified)
- IC50 [3]: 1.47 µM (active)

SMILES: COc1ccc(NC2CCCN(C(=O)CSc3ccccc3)C2)cc1 (stereo unspecified)
- IC50 (Large T antigen): 7.48 µM (active)

SMILES: Cn1c(=O)c2nc(Nc3ccccc3)[nH]c2n(C)c1=O
- IC50 (cells [1]): > 29.9 µM (inactive)
- EC50 (cells [2]): > 29.9 µM (inactive)

SMILES: CC(C)(C)NC(=O)CN(C(=O)CCN1CCCc2ccccc21)C(C)(C)C
- AC50 [4]: 4.37 µM (active)
- IC50 [5]: > 66 µM (inactive)
- IC50 [6]: > 66 µM (inactive)
- IC50 (Protein skinhead-1): > 100 µM (inactive)

SMILES: Cc1ccccc1CN1C(=O)CSc2ccc(C(=O)N3CCOCC3)cc21
- EC50 (cells [7]): > 350 µM (not active)
- EC50 (cells [8]): > 350 µM (not active)

SMILES: COc1ccc(CN(Cc2cc3cccc(C)c3n3nnnc23)C(=O)N2CCOCC2)cc1
- IC50 (Fatty acid synthase [9]): 26.4 µM (inactive)
- IC50 (Fatty acid synthase [10]): 18.8 µM (active)

SMILES: CS(=O)(=O)c1ccc2nc(NC(=O)C3CC(=O)N(c4ccc(F)cc4)C3)sc2c1 (stereo unspecified)
- EC50 (cells [7]): > 350 µM (not active)
- EC50 (cells [8]): > 350 µM (not active)

SMILES: CC(C)OC(=O)[C@H]1[C@H](c2ccc(Cl)cc2)[C@@](C#N)(C(N)=O)[C@@H]2C=CC(C(N)=O)=CN21
- IC50 (Fatty acid synthase [9]): 7.56 µM (active)
- IC50 (Fatty acid synthase [10]): 10.9 µM (active)

SMILES: CCC(CO)Oc1cc(NC(=O)c2ccccc2C)c2ncn(C(C)C)c2c1 (stereo unspecified)
- IC50 [11]: 17.6 µM (active)
- IC50 [12]: > 66.6 µM (inactive)

SMILES: Cc1ccc(Cl)cc1Nc1nc(-c2sc(NC(=O)C(C)(C)C)nc2C)cs1
- IC50 [11]: 9.1 µM (active)
- CC50 [13]: 21.4 µM (active)
- IC50 [12]: > 66.6 µM (inactive)

SMILES: O=C(C[C@H]1C[C@H](C(=O)N2CCOCC2)[C@@]2(CCC3CCCC3)c3[nH]c4cc(-c5ccco5)ccc4c3CCN2C1=O)NCCN1CCOCC1
- IC50 (Fatty acid synthase [9]): 3.76 µM (active)
- IC50 (Fatty acid synthase [10]): 6.62 µM (active)

SMILES: CC(CNC(=O)C1CCCCC1C(=O)O)c1ccccc1 (stereo unspecified)
- IC50 (cells [1]): > 29.9 µM (inactive)
- EC50 (cells [2]): > 29.9 µM (inactive)

SMILES: COc1cccc(/C=N/NC(=O)CSc2ccccc2C)c1O
- EC50 (cells [7]): 30.4 µM (active)
- EC50 (cells [8]): 52.4 µM (active)

SMILES: O=C(NCCN1CCC(n2c(O)nc3ccccc32)CC1)c1cccc2c1-c1ccccc1C2=O
- IC50 [11]: 17.9 µM (active)
- IC50 [12]: > 66.6 µM (inactive)

SMILES: CCc1nc2c(OCc3ccc(Cl)cc3)cccn2c1N(C=O)Cc1ccc(OC)cc1
- IC50 (Fatty acid synthase [9]): 9.84 µM (active)
- IC50 (Fatty acid synthase [10]): 8.01 µM (active)

SMILES: CCCCCCN(C(=O)CCCCCN1C(=O)NC(c2ccc(-c3ccccc3)cc2)C(C(=O)OCc2ccccc2)=C1C)C(C(=O)NCCCC)c1ccccc1 (stereo unspecified)
- AC50 (Cytochrome P450 3A4): 2 µM (inconclusive)

SMILES: CC(=O)c1ccc(N2/C(=N/C(=O)COc3ccccc3)SC3CS(=O)(=O)CC32)cc1 (stereo unspecified)
- EC50 (cells [7]): > 350 µM (not active)
- EC50 (cells [8]): > 350 µM (not active)

SMILES: O=C(N/N=C(\c1ccccc1)c1cccnc1)c1cc(O)ccc1O
- IC50 (Large T antigen): 6.14 µM (active)

SMILES: N#Cc1c(N)sc(=S)c2c1CCCCC2
- IC50 (Large T antigen): 46.4 µM (active)
- IC50 (Genome polyprotein): > 100 µM (active)

SMILES: Nc1ccc(-c2ccc(N)c(O)c2)cc1O
- AC50 (Cytochrome P450 3A4): 31.6 µM (inconclusive)

Source: ChEMBL document CHEMBL1201862, “PubChem BioAssay data set” (2004)
